Test results: ChEMBL document CHEMBL3991601, “The target landscape of clinical kinase drugs” (Science, 2017)
Calls of active or inactive are those of the source.

Legend:
[1] = target: T1, Tyrosine-protein kinase Tec (Homo sapiens, UniProt P42680)
T1 sequence (P42680 whole entry): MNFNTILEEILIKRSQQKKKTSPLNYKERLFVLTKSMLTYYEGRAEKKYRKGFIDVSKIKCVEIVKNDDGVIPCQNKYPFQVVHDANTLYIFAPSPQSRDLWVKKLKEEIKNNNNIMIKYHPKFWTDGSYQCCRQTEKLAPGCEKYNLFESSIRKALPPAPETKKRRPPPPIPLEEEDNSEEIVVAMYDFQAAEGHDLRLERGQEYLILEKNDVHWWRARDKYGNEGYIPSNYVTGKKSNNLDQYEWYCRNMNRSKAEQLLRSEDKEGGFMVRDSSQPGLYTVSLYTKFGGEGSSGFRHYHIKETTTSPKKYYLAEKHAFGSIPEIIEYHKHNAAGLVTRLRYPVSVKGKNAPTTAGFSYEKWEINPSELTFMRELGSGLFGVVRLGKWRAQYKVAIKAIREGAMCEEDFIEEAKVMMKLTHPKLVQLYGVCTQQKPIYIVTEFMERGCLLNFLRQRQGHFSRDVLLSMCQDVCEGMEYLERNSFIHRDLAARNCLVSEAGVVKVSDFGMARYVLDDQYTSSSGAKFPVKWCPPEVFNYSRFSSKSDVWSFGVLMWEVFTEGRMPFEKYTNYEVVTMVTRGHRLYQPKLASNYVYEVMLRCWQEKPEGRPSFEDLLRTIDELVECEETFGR

ADP/ATP translocase 3 = target: T2, ADP/ATP translocase 3 (Homo sapiens, UniProt P12236)
T2 sequence (P12236 whole entry): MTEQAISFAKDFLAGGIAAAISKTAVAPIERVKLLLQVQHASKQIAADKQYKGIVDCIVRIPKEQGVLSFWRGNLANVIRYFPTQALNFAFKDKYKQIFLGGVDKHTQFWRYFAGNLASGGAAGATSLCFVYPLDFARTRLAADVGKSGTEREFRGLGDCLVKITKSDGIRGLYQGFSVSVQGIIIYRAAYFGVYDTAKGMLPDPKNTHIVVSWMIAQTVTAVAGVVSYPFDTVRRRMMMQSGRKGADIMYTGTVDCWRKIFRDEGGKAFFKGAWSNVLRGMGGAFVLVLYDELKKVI

DNA topoisomerase 2-beta = DNA topoisomerase 2-beta (Homo sapiens, UniProt Q02880)
DNA topoisomerase 2-beta, sequence (Q02880 whole entry): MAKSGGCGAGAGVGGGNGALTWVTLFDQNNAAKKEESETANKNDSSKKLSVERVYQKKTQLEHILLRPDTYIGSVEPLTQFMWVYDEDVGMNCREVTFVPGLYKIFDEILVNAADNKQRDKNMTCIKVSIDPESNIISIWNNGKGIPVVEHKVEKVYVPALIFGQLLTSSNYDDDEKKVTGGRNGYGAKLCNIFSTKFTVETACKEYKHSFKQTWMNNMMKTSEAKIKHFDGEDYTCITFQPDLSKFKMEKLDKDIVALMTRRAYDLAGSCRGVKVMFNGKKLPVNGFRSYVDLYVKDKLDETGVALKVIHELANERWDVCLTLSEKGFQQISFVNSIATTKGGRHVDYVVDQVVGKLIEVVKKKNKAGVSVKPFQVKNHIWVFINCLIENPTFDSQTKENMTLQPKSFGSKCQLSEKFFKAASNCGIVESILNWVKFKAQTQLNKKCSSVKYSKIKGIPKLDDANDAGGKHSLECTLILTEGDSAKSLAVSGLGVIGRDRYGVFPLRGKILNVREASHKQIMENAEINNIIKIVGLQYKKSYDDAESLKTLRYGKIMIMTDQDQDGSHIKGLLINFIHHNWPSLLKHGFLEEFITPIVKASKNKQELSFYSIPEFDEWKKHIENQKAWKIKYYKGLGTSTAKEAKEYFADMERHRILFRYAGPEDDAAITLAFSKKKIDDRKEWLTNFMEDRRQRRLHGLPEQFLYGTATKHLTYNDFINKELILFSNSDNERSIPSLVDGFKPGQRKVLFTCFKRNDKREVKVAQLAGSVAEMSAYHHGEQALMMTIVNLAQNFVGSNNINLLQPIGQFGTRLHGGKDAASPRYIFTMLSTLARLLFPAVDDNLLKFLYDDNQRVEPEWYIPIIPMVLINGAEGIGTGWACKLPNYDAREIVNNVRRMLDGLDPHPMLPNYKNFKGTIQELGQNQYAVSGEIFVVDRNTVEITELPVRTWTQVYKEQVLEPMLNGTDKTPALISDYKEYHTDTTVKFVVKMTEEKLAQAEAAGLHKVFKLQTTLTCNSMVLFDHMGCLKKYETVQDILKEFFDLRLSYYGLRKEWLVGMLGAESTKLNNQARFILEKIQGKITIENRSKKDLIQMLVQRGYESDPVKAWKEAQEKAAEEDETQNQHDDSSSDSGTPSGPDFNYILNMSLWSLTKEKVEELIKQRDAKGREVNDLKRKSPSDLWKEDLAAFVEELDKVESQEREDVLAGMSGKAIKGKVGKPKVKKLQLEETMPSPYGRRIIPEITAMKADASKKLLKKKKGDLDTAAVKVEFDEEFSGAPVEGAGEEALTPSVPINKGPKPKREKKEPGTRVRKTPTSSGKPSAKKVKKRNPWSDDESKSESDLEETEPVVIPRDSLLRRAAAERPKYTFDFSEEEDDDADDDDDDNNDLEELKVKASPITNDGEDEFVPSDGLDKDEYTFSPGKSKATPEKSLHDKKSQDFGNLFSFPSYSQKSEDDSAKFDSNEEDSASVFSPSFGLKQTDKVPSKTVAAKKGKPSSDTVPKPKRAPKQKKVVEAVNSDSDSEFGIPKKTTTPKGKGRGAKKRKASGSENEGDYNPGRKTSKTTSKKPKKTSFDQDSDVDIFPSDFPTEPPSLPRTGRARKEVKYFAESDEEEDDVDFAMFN

[2] = target: Atypical kinase COQ8A, mitochondrial (Homo sapiens, UniProt Q8NI60)
Atypical kinase COQ8A, mitochondrial, sequence (Q8NI60 whole entry): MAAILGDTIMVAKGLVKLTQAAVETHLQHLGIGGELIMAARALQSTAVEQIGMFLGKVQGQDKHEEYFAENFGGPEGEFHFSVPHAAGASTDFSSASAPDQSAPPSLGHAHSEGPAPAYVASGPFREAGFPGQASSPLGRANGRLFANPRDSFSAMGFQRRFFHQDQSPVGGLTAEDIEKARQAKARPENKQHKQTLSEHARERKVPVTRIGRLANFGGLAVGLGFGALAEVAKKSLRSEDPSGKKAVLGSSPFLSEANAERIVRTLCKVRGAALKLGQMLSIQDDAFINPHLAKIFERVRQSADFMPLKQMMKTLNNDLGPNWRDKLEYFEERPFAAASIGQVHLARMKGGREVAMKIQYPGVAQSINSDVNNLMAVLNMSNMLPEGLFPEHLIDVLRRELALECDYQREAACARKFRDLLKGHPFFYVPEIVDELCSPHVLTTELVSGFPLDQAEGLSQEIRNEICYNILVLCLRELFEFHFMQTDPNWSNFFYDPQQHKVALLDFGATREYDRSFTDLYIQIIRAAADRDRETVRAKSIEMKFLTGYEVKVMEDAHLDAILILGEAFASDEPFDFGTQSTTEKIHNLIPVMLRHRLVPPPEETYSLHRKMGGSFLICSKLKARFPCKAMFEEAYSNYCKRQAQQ

[3] = target: T3, Signal recognition particle receptor subunit alpha (Homo sapiens, UniProt P08240)
T3 sequence (P08240 whole entry): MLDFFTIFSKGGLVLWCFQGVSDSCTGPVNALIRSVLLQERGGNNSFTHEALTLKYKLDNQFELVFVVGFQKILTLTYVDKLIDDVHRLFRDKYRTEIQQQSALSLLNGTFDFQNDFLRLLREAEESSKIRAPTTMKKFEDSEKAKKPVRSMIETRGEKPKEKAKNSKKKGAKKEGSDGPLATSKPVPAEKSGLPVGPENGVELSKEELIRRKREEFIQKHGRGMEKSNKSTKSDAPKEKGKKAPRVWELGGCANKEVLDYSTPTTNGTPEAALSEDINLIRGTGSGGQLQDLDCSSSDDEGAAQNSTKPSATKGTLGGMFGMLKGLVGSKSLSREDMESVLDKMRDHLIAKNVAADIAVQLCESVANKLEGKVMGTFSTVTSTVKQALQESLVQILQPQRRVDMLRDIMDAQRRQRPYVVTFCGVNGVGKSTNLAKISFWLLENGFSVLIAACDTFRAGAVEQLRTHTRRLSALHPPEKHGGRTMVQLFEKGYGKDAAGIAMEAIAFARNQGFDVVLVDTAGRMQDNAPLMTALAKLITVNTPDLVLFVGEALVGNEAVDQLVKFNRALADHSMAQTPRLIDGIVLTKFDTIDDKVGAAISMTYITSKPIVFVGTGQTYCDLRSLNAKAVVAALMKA

[4] = target: 26S proteasome regulatory subunit 6B (Homo sapiens, UniProt P43686)
26S proteasome regulatory subunit 6B, sequence (P43686 whole entry): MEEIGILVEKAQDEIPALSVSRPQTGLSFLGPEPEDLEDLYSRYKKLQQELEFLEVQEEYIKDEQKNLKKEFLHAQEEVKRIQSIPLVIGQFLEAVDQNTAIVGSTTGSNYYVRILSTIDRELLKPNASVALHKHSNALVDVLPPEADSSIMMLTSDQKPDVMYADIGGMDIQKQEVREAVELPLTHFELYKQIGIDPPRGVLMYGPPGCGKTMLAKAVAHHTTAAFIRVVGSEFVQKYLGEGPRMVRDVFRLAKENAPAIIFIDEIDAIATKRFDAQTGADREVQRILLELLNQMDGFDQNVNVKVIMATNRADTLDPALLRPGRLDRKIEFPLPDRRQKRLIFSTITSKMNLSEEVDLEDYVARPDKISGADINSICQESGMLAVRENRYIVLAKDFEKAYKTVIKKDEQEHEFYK

[5] = target: MAP kinase-activated protein kinase 2 (Homo sapiens, UniProt P49137)
MAP kinase-activated protein kinase 2, sequence (P49137 whole entry): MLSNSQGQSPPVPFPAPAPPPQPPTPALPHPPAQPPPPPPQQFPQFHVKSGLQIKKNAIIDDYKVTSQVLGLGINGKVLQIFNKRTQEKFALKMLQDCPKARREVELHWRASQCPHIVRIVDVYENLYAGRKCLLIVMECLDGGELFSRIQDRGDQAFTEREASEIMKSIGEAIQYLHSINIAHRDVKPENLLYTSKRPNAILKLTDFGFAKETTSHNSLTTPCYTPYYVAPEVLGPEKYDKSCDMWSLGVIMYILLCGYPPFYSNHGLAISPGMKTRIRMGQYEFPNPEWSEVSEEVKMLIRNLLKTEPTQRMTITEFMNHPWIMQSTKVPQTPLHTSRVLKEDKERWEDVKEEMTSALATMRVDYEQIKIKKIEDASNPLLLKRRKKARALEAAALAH

[6] = target: T4, Peroxisomal acyl-coenzyme A oxidase 3 (Homo sapiens, UniProt O15254)
T4 sequence (O15254 whole entry): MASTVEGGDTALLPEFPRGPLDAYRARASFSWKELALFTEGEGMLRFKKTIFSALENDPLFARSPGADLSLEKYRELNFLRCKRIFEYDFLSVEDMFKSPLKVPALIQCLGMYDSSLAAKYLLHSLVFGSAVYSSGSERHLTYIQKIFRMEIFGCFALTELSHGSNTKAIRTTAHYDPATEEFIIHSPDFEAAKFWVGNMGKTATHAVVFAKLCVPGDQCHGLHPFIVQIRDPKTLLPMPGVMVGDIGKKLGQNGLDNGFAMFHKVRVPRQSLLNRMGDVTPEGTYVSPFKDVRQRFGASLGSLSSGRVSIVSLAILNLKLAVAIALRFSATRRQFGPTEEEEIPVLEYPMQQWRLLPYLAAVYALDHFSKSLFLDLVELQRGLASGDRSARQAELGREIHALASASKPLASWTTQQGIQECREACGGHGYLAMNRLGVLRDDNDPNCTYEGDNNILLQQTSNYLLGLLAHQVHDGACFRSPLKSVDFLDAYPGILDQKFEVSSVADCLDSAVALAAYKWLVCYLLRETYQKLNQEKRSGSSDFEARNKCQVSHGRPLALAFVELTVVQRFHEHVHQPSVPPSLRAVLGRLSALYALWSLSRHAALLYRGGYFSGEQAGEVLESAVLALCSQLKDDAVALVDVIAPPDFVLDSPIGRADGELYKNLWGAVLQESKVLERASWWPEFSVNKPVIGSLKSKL
Note: in the data inactive means no Kd found up to 30 µM.

SMILES | Kd [1] | Kd (ADP/ATP translocase 3) | Kd (DNA topoisomerase 2-beta) | Kd [2] | Kd [3] | Kd [4] | Kd [5] | Kd [6]
Cc1ccc(NC(=O)c2ccc(CN3CC[C@H](N(C)C)C3)c(C(F)(F)F)c2)cc1Nc1nccc(-c2cncnc2)n1 [BAFETINIB] | > 30 µM (inactive) | > 30 µM (inactive) | > 30 µM (inactive) | > 30 µM (inactive) | > 30 µM (inactive) | > 30 µM (inactive) | 0.304 µM (active) | > 30 µM (inactive)
CCS(=O)(=O)N1CC(CC#N)(n2cc(-c3ncnc4[nH]ccc34)cn2)C1 [BARICITINIB] | > 30 µM (inactive) | > 30 µM (inactive) | > 30 µM (inactive) | > 30 µM (inactive) | > 30 µM (inactive) | > 30 µM (inactive) | > 30 µM (inactive) | > 30 µM (inactive)
Cc1cc2c(F)c(Oc3ncnn4cc(OC[C@@H](C)OC(=O)[C@H](C)N)c(C)c34)ccc2[nH]1 [BRIVANIB ALANINATE] | > 30 µM (inactive) | > 30 µM (inactive) | > 30 µM (inactive) | > 30 µM (inactive) | > 30 µM (inactive) | > 30 µM (inactive) | > 30 µM (inactive) | > 30 µM (inactive)
CNC(=O)c1ccc(-c2cnc3ncc(Cc4ccc5ncccc5c4)n3n2)cc1F [CAPMATINIB] | > 30 µM (inactive) | > 30 µM (inactive) | > 30 µM (inactive) | > 30 µM (inactive) | > 30 µM (inactive) | > 30 µM (inactive) | > 30 µM (inactive) | > 30 µM (inactive)
O=C(c1ccc(F)c(F)c1Nc1ccc(I)cc1F)N1CC(O)([C@@H]2CCCCN2)C1 [COBIMETINIB] | > 30 µM (inactive) | > 30 µM (inactive) | > 30 µM (inactive) | > 30 µM (inactive) | > 30 µM (inactive) | > 30 µM (inactive) | > 30 µM (inactive) | > 30 µM (inactive)
CCc1cnn2c(NCc3ccc[n+]([O-])c3)cc(N3CCCC[C@H]3CCO)nc12 [DINACICLIB] | > 30 µM (inactive) | > 30 µM (inactive) | > 30 µM (inactive) | > 30 µM (inactive) | > 30 µM (inactive) | > 30 µM (inactive) | > 30 µM (inactive) | > 30 µM (inactive)
COC(=O)N[C@@H](C)CNc1nccc(-c2cn(C(C)C)nc2-c2cc(Cl)cc(NS(C)(=O)=O)c2F)n1 [ENCORAFENIB] | > 30 µM (inactive) | > 30 µM (inactive) | > 30 µM (inactive) | > 30 µM (inactive) | > 30 µM (inactive) | > 30 µM (inactive) | 14.7 µM (active) | > 30 µM (inactive)
CO[C@H]1C[C@@H]2CC[C@@H](C)[C@@](O)(O2)C(=O)C(=O)N2CCCC[C@H]2C(=O)O[C@H]([C@H](C)C[C@@H]2CC[C@@H](OCCO)[C@H](OC)C2)CC(=O)[C@H](C)/C=C(\C)[C@@H](O)[C@@H](OC)C(=O)[C@H](C)C[C@H](C)/C=C/C=C/C=C/1C [EVEROLIMUS] | > 30 µM (inactive) | > 30 µM (inactive) | > 30 µM (inactive) | > 30 µM (inactive) | > 30 µM (inactive) | > 30 µM (inactive) | > 30 µM (inactive) | > 30 µM (inactive)
COCCNCc1ccc(-c2cc3nccc(Oc4ccc(NC(=S)NC(=O)Cc5ccc(F)cc5)cc4F)c3s2)nc1 [GLESATINIB] | > 30 µM (inactive) | > 30 µM (inactive) | > 30 µM (inactive) | > 30 µM (inactive) | > 30 µM (inactive) | > 30 µM (inactive) | > 30 µM (inactive) | > 30 µM (inactive)
CC[C@H](Nc1ncnc2[nH]cnc12)c1nc2cccc(F)c2c(=O)n1-c1ccccc1 [IDELALISIB] | > 30 µM (inactive) | > 30 µM (inactive) | > 30 µM (inactive) | > 30 µM (inactive) | > 30 µM (inactive) | > 30 µM (inactive) | > 30 µM (inactive) | > 30 µM (inactive)
COc1cc2nccc(Oc3ccc(NC(=O)NC4CC4)c(Cl)c3)c2cc1C(N)=O [LENVATINIB] | > 30 µM (inactive) | > 30 µM (inactive) | > 30 µM (inactive) | > 30 µM (inactive) | > 30 µM (inactive) | > 30 µM (inactive) | 0.063 µM (active) | > 30 µM (inactive)

Further lines, results first:

Kd [1] | Kd (ADP/ATP translocase 3) | Kd (DNA topoisomerase 2-beta) | Kd [2] | Kd [3] | Kd [4] | Kd [5] | Kd [6] | SMILES
> 30 µM (inactive) | > 30 µM (inactive) | > 30 µM (inactive) | > 30 µM (inactive) | > 30 µM (inactive) | > 30 µM (inactive) | > 30 µM (inactive) | > 30 µM (inactive) | COc1cc(CCc2cc(NC(=O)c3ccc(N4C[C@@H](C)N[C@@H](C)C4)cc3)n[nH]2)cc(OC)c1 [AZD-4547]
> 30 µM (inactive) | > 30 µM (inactive) | > 30 µM (inactive) | > 30 µM (inactive) | > 30 µM (inactive) | > 30 µM (inactive) | > 30 µM (inactive) | > 30 µM (inactive) | Cc1cc([C@@H](C)Nc2ccccc2C(=O)O)c2nc(N3CCOCC3)cc(=O)n2c1 [AZD-6482]
> 30 µM (inactive) | > 30 µM (inactive) | > 30 µM (inactive) | > 30 µM (inactive) | > 30 µM (inactive) | > 30 µM (inactive) | > 30 µM (inactive) | > 30 µM (inactive) | COc1ccc(-c2ccc3c(N4CCOC[C@@H]4C)nc(N4CCOC[C@@H]4C)nc3n2)cc1CO [AZD-8055]
> 30 µM (inactive) | > 30 µM (inactive) | 0.936 µM (active) | > 30 µM (inactive) | > 30 µM (inactive) | > 30 µM (inactive) | > 30 µM (inactive) | > 30 µM (inactive) | C[C@@H](Nc1cc(F)cc(F)c1)c1cc(C(=O)N(C)C)cc2c(=O)cc(N3CCOCC3)oc12 [AZD-8186]
> 30 µM (inactive) | > 30 µM (inactive) | > 30 µM (inactive) | > 30 µM (inactive) | > 30 µM (inactive) | > 30 µM (inactive) | > 30 µM (inactive) | > 30 µM (inactive) | O=C1NC(=O)/C(=C/c2ccc3nccc(-c4ccncc4)c3c2)S1 [GSK-1059615]
> 30 µM (inactive) | > 30 µM (inactive) | > 30 µM (inactive) | > 30 µM (inactive) | > 30 µM (inactive) | > 30 µM (inactive) | > 30 µM (inactive) | > 30 µM (inactive) | Cn1cc(-c2ccc3nnc(C(F)(F)c4ccc5ncccc5c4)n3n2)cn1 [JNJ-38877605]
